The text below walks through data of patent EP1840211A1, “Pyranosone dehydratase from phanerochaete chrysosporium” (DANISCO A/S, priority 2001, dated 2003).

The target of assay [1] is T1, pyranosone dehydratase (PD) (Phanerodontia chrysosporium, UniProt P84193).
T1 construct: from tissue; host or cells: Phanerochaete chrysosporium (enzyme purified from the fungus' cell-free extract)
T1 sequence (P84193 8-900 limits assumed): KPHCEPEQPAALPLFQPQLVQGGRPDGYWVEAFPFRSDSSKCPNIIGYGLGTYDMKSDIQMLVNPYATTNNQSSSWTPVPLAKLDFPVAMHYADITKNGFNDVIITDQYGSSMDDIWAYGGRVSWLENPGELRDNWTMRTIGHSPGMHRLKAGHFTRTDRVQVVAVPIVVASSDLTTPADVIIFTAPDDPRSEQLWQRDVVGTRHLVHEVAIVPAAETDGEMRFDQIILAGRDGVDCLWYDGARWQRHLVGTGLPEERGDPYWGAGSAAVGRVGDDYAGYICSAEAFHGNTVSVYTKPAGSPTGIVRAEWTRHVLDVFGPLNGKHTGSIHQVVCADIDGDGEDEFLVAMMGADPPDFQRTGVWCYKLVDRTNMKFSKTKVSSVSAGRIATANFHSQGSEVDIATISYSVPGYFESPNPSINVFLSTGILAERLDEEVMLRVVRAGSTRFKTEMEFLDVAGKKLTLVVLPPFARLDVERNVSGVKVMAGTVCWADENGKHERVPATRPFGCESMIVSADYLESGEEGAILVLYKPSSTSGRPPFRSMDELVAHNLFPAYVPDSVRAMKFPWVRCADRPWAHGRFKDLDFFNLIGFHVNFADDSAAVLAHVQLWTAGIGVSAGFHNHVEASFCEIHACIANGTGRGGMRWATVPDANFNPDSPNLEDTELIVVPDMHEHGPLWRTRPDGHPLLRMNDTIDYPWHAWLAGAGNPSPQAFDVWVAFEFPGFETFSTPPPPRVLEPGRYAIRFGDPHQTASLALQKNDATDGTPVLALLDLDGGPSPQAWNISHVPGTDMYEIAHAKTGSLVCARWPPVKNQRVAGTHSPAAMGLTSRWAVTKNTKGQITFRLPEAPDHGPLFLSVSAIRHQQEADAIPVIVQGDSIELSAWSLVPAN
The assay is described as follows: Conversion of AF or glucosone by PD, monitored at 226nm. As to conditions: for OD226nm: 22°C, 5.5 hours. It is filed as biochemical, Phanerochaete chrysosporium. The method, then: The reaction system consisted of AF or glucosone 1-15µl, 25µl sodium phosphate buffer (6.5. 0.1M), water, 1.4µl PD to a final volume of 200µl. The reaction was performed at 22°C for 5.5 hours. The formation of microthecin from AF and cortalcerone from glucosone were monitorered at 226nm.

In the next assay the test system is Aphanomyces. The experiment in a line: Field emergence trial (Trial FEHCP034 Aphanomyces). The conditions noted are these: pellets containing the substance, result in words. Type of assay: in vivo, sugar beet. From the text: Based on these findings, the efficiency of microthecin was further investigated in a field emergence trial. The trial was sown relatively late giving it a higher chance for presence of the pathogen Aphanomyces in the trial field.
Seeds were pelleted with standard P1 pelleting mass with (1,2) or without (7,8)Thiram.
Inner coating: 0,3gai/U microthecin as a 0,5% solution in water or 14,7gai/U Hymexazol. 60gai/U Imidacloprid. Standard metallic green seed cover film.
The following combinations were included in the trial: R F0 Without fungicides R FT With Thiram (in pellet) R FH With Hymexazol R FM With Microthecin R P1 STD With Thiram (in pellet) + Hymexazol R FTM With Thiram (in pellet) + Microthecin Trial place Bukkehave, DK. (4 reps, 200 seeds/plot) Trial sown 21.05.2002 1. Count 28.05.2002 (speed) 2. Count 29.05.2002 (speed) 3. Count 24.06.2002 (final)

In the next assay the test system is sugar beet seeds. The experiment in a line: Laboratory germination of pelleted sugar beet seeds. It is filed as in vivo. The conditions noted are these: result in words.
The next assay has as its system Pythium ultimum. The experiment in a line: Agar plate inhibition zone test (PDA medium). Type of assay: cell-based. As to conditions: Globisporangium ultimum; judged after 1-2 days of growth; read-out: minimum inhibition concentration (mic). The method, then:
(§1) A circular plug (diameter 10 mm) of fresh mycelium was placed at the centre on a petri-dish (diameter 9 cm) containing PDA medium. (PDA= Potato dextrose agar Difco no. 213400). Wells with a diameter of 5 mm were cut along the periphery of the agar plate. In each well were placed 50 µl of a test solution. Alternatively, 20 µl of each test solution were placed directly on the agar along the periphery of the plate. Also, 50µl of each test solution were placed directly on top of the fungal mycelium plug.
(§2) The agar plates were placed at room temperature in daylight, but protected from direct sunlight.
(§3) The reaction (inhibition zones) of the fungi to the test substance was judged as follows: Rhizoctonia solani: after 2-3 days of growth Pythium ultimum: after 1-2 days of growth Aphanomyces cochlioides: after 3-4 days of growth Cercospora beticola after 3-4 weeks of growth

For another assay, the system named is Cercospora beticola. The experiment in a line: Agar plate inhibition zone test (PDA medium). Type of assay: cell-based. The conditions noted are these: judged after 3-4 weeks of growth, read-out: minimum inhibition concentration (mic). On the procedure: as §1, §2, §3
In assay [2] the test system is Aphanomyces cochlioides. The experiment in a line: Agar plate inhibition zone test (PDA medium). The conditions noted are these: judged after 3-4 days of growth, read-out: minimum inhibition concentration (mic). It is filed as cell-based. The method, then: as §1, §2, §3
The subject of a further assay is Rhizoctonia solani. The assay is described as follows: Agar plate inhibition zone test (PDA medium). It is filed as cell-based. As to conditions: judged after 2-3 days of growth, read-out: minimum inhibition concentration (mic). The method, then:
as §1, §2, §3

Assay [3] has as its system Aphanomyces cochlioides. The assay is described as follows: Screening for growth inhibition on agar-plates (Example 4). It is filed as cell-based. As to conditions: very low concentrations; in wells on PDA-agar plates, 3-5 days. The method, then: The effect of microthecin on the plant pathogenic fungi Pythium ultimum, Rhizoctonia solani and Aphanomyces cochlioides in vitro was investigated by screening for growth inhibition of the pathogens on agar-plates (Figures 6, 7, 8).
(§4) In each case, microthecin was dissolved in water and placed in wells in the periphery. An agar block containing the pathogen was placed in the centre. The pathogens were allowed to grow out on the PDA-agar plates for 3-5 days.

A further assay has as its system B. megaterium DS98.124. The experiment in a line: Similar growth tests with other microorganisms (Example 4). Type of assay: cell-based. On the procedure: as §4
Another assay relates to P. mendocina DS98.124. The description is as above. Type of assay: cell-based. On the procedure: as §4
The test system of a further assay is B. Pumilus DS96.734. Described as above. It is filed as cell-based. The method, then:
as §4

A further assay deals with Cercospora. The assay is described as above. It is filed as cell-based. On the procedure:
as §4

The subject of another assay is P. fluorescens DS96.578. Described as above. Type of assay: cell-based. The method, then: as §4
The mark [4] stands for this setting: final substrate concentration 13.7 µg/ml reaction mixture.
[5] abbreviates: final substrate concentration 27.4 µg/ml reaction mixture.
The mark [6] stands for this setting: final substrate concentration 41.1 µg/ml reaction mixture.
[7] abbreviates: final substrate concentration 68.4 µg/ml reaction mixture.
[8] abbreviates: final substrate concentration 95.8 µg/ml reaction mixture.
[9] abbreviates: final substrate concentration 137 µg/ml reaction mixture.
Setting [10] is: final substrate concentration 205 µg/ml reaction mixture.

≈ marks a conversion by molar mass, not a printed value.

With `O=CC(=O)[C@@H](O)[C@H](O)[C@H](O)CO` [Glucosone, D-arabino-hexos-2-ulose], the OD226nm in assay [1] (setting [4]) was determined as 0.069; in assay [1] (setting [5]), 0.104; in assay [1] (setting [6]), 0.141; in assay [1] (setting [7]), 0.238; in assay [1] (setting [8]), 0.323; in assay [1] (setting [9]), 0.484. Further, the OD226nm in assay [1] (setting [10]) is 0.634.
Take `Cc1cc(O)no1` [Hymexazol, reference compound]: the speed of germination entry in the assay on Aphanomyces is “relatively slow”. Further, in the assay on sugar beet seeds, the “4d>15mm germination” value is listed as “low”.
As to `O=C1CO[C@H](CO)[C@@H](O)[C@@H]1O` [AF, 1,5-anhydro-D-fructose], the OD226nm in assay [1] (setting [4]) came out at 0.308; in assay [1] (setting [5]), 0.534; in [1] (setting [6]), 0.76; in [1] (setting [7]), 1.246; in [1] (setting [8]) it was 1.764; in assay [1] (setting [9]) it was 2.43. Also, in assay [1] (setting [10]), the OD226nm was 2.943. For the same molecule, the “Vmax higher with AF than with glucosone” value in [1] (ratio AF vs glucosone as PD substrate) is on record as “around 4.7 times”.
As for `O=C1C=CCOC1(O)CO` (stereo not drawn) [microthecin], in the assay on Aphanomyces, the final germination result was “high final germination”. In addition, the speed of germination entry in the assay with Aphanomyces is “comparable with pellets only containing Thiram”. In addition, the MIC with Pythium ultimum was determined as 480 µg/mL (≈ 3.33 mM); with Cercospora beticola, 2400 µg/mL (≈ 16.7 mM); in the assay with Aphanomyces cochlioides [2] it was 1200 µg/mL (≈ 8.33 mM); in the assay on Rhizoctonia solani, 240 µg/mL (≈ 1.67 mM). Also, the “speed of laboratory germination (4d)” value in the assay on sugar beet seeds (inclusion in the pellet) was “decreases the speed of laboratory germination”. The “growth of Aphanomyces” value with Aphanomyces cochlioides [3] is given as “able to reduce the growth”. The “effect on the growth” value in the assay with B. megaterium DS98.124 and in the assay with B. Pumilus DS96.734 was “no effect” throughout. Further, the effect on growth result with P. mendocina DS98.124 and in the assay with P. fluorescens DS96.578 was “slightly affected” in each case. Moreover, the “effect on Cercospora” value in the assay on Cercospora was “no effect”.
